Data reported in paper PMC9455918, “Quinolizidines as Novel SARS-CoV-2 Entry Inhibitors” (International Journal of Molecular Sciences, 2022).
Like-named read-outs stand apart in the source and are kept apart here.

What was measured:
cathepsin B = molecular target: T1, cathepsin B (Homo sapiens, UniProt P07858); experiment: Cathepsin B inhibitor assay kit (BPS bioscience); format: biochemical; details: for Inhibitory activity against cathepsin B: tested at 20 µM, duplicated experiment
T1 construct: purchased BPS bioscience 79590

cathepsin L = molecular target: T2, cathepsin L (Homo sapiens, UniProt P07711); experiment: Cathepsin L inhibitor assay kit (BPS bioscience); format: biochemical; details: tested at 20 µM, duplicated experiment
T2 construct: purchased BPS bioscience

HIV-1NL4-3-nanoluc-sec [1] = details: previously described; ref [19],[20],[21],[22]; cited from earlier work
[2] = test system: PA/Puerto Rico/8/1934 Influenza A Virus (PR8); details: cited from earlier work
in vitro = format: cell-based; details: human; concentration that reduced viability of 293T-ACE2 cells by 50%; 3 days
Experimental: The CellTiter-Glo® Luminescent Cell Viability Assay (Promega, Cat. # G7570 ) was used to determine the cytotoxicity of the aloperine derivatives. 293T-ACE2 cells were cultured in the presence of various concentrations of the compounds for 3 days. The cytotoxicity of the compounds was determined by following the protocol provided by the manufacturer. The 50% cytotoxic concentration (CC50) was defined as the concentration that caused a 50% reduction in cell viability.

[3] = test system: D614G spike-pseudotyped virus in 293T-ACE2 cells; format: cell-based; details: 5 µM, 2 h infection with D614G spike-pseudotyped virus
[4] = test system: murine leukemia virus envelope (MLV-env) pseudotyped virus; experiment: microbe, parasite or virus in culture; format: cell-based; details: spike protein replaced with MLV-env, marked ** in Table 1
[5] = test system: Omicron BA.4/BA.5 spike-pseudotyped virus; experiment: microbe, parasite or virus in culture; format: cell-based; details: 293T-ACE2 cells
[6] = test system: Omicron BA.2 spike-pseudotyped virus; experiment: microbe, parasite or virus in culture; format: cell-based; details: 293T-ACE2 cells
[7] = test system: Delta spike-pseudotyped virus; experiment: microbe, parasite or virus in culture; format: cell-based; details: 293T-ACE2 cells
[8] = test system: PA/Puerto Rico/8/1934 Influenza A Virus (PR8); experiment: microbe, parasite or virus in culture; format: cell-based; details: new compound 9, no reference given
HIV-1NL4-3-nanoluc-sec [9] = format: cell-based; details: new compound 9, no reference given; Inac = CC50/IC50 ratio < 5
[10] = Severe acute respiratory syndrome coronavirus 2

T2 sequence (P07711 114-333): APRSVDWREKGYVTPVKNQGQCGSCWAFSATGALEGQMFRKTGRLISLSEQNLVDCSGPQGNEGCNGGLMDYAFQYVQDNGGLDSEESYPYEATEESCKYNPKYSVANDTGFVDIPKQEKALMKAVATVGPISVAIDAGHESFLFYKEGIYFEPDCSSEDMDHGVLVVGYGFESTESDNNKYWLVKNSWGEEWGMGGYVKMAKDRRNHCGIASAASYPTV

SMILES | IC50 (HIV-1NL4-3-nanoluc-sec [1]) [µM] | IC50 [2] [µM] | CC50 (in vitro) [µM] | further results
C1=C2CCCN[C@H]2[C@@H]2C[C@H]1[C@H]1CCCCN1C2 [Aloperine, aloperine, reference compound] | 1.75 | 14.5 | > 20 | Inhibitory activity against cathepsin B (cathepsin B): inactive; Inhibitory activity against cathepsin L (cathepsin L): inactive
CCN(CC)CCCC(C)Nc1ccnc2cc(Cl)ccc12 (centres unmarked) [Chloroquine diphosphate, reference compound] | – | – | – | Spike protein (virus) puncta in 293T-ACE2 cells under confocal microscope [3]: no accumulation of viral puncta
O=C(NCCCCCCN1CCCC2CC3CC(CN4CCCCC34)C21)c1c(F)cc(Br)cc1F (centres unmarked) [Compound 1] | > 20 | 0.091 | > 20 | –
O=C(NCCN1CCCC2=CC3CC(CN4CCCCC34)C21)c1ccccc1F (centres unmarked) [Compound 2] | > 25 | 5.5 | – | –
O=C(Cc1ccc(S(=O)(=O)C(F)(F)F)cc1)NCCCCN1CCCC2=CC3CC(CN4CCCCC34)C21 (centres unmarked) [Compound 3] | 0.12 | > 20 | > 20 | IC50, PA/Puerto Rico/8/1934 Influenza A Virus (PR8) [2]: without anti-influenza virus activity
C1=C2CCCN(CCCCCNCc3ccccc3)C2C2CC1C1CCCCN1C2 (centres unmarked) [Compound 4] | 0.84 | > 40 | > 20 | –
C1=C2CCCN(CCCCNCc3ccccc3)C2C2CC1C1CCCCN1C2 (centres unmarked) [Compound 5] | 0.96 | > 40 | > 20 | Inhibitory activity against cathepsin B (cathepsin B): totally inactive; Inhibitory activity against cathepsin B (cathepsin B; listed as compound 5): did not inhibit; IC50 ([4]; Murine leukemia virus, read-out: Antiviral activity (IC50) against MLV-env pseudotyped virus): > 20 µM; Antiviral activity (IC50) against MLV-env pseudotyped virus [4]: inactive; Inhibitory activity against cathepsin L (cathepsin L): totally inactive; Inhibitory activity against cathepsin L (cathepsin L; listed as compound 5): did not inhibit; IC50 [5, 10]: 0.86 ± 0.25 µM; Spike protein (virus) puncta in 293T-ACE2 cells under confocal microscope [3]: observed as puncta; IC50 [6, 10]: 0.83 ± 0.21 µM; IC50, PA/Puerto Rico/8/1934 Influenza A Virus (PR8) [2]: ineffective; IC50 [7, 10]: 0.58 ± 0.15 µM
COc1ccc(C(=O)NCCCCN2CCCC3=CC4CC(CN5CCCCC45)C32)cc1 (centres unmarked) [Compound 6] | 11.4 | > 20 | > 20 | –
CC(C)(C)c1ccc(C(=O)NCCCCCCN2CCCC3=CC4CC(CN5CCCCC45)C32)cc1 (centres unmarked) [Compound 7] | 0.8 | 0.83 | > 20 | –
O=C(NCCCCCCCC(=O)N1CCCC2=CC3CC(CN4CCCCC34)C21)c1ccc(OC(F)(F)F)cc1 (centres unmarked) [Compound 8] | > 20 | > 28.5 | > 20 | IC50, HIV-1NL4-3-nanoluc-sec (HIV-1NL4-3-nanoluc-sec [1]): inactive; IC50, PA/Puerto Rico/8/1934 Influenza A Virus (PR8) [2]: inactive
Fc1ccc(CNCCCCN2CCCC3=CC4CC(CN5CCCCC45)C32)cc1 (centres unmarked) [Compound 9] | – | – | > 10 | IC50 [8]: 4.8 ± 1.4 µM; IC50, HIV-1NL4-3-nanoluc-sec (HIV-1NL4-3-nanoluc-sec [9]): Inac ^8
CC(C)C[C@H](NC(=O)[C@H]1O[C@@H]1C(=O)O)C(=O)NCCCCN=C(N)N [Compound E64, E64, reference compound] | – | – | – | Inhibition of enzyme activity (cathepsin B) (cathepsin B; at 0.1 µM): more than 95%
CCOC(=O)[C@H]1O[C@@H]1C(=O)N[C@@H](CC(C)C)C(=O)NCCC(C)C [Compound E64D, E64D, reference compound] | – | – | – | IC50 [5]: 0.34 ± 0.081 µM; IC50 [6]: 0.37 ± 0.066 µM; IC50 [7]: 0.45 ± 0.082 µM
